Reference: patent US7071215B2 (Pharmacia & Upjohn Company LLC, priority 2002, dated 2006)

Experiment: binding assay as described in U.S. Pat. No. 5,859,188 (Geary, et al., 1999): displacement of a radiolabelled ligand
Conditions: percent displacement of a radiolabelled ligand at 25 micromolar
Method: Selected compounds were evaluated for their anti-parasitic activity in a binding assay as described in U.S. Pat. No. 5,859,188 (Geary, et al., 1999). Results of the evaluations are given in Table 2 wherein “% Inhibition” means percent displacement of a radiolabelled ligand at 25 micromolar as described.

Structure (SMILES)	% Inhibition
O=C(CN1CCCC(O)C1)Nc1sc2c(c1C(=O)c1ccc(F)cc1)CCSC2 (stereo not shown) [Compound 53]	19–20%
O=C(CN1CCCC(O)C1)Nc1sc2c(c1C(=O)c1ccco1)CCSC2 (stereo not shown) [Compound 10]	21–38%
O=C(CN1CCCC(O)C1)Nc1sc2c(c1C(=O)c1ccc(F)c(F)c1)CCSC2 (stereo not shown) [Compound 55]	100%
O=C(CN1CCCC(O)C1)Nc1sc2c(c1C(=O)c1cccc(C(F)(F)F)c1)CCSC2 (stereo not shown) [Compound 33]	92–94%
Cc1ccc(C(O)c2c(NC(=O)CN3CCCC(O)C3)sc3c2CCSC3)cc1 (stereo not shown) [Compound 40]	100%
O=C(CN1CCCC(O)C1)Nc1sc2c(c1C(O)c1ccc(F)cc1)CCSC2 (stereo not shown) [Compound 54]	93–97%
O=C(CN1CCCC(O)C1)Nc1sc2c(c1C(O)c1ccc(Cl)cc1)CCSC2 (stereo not shown) [Compound 20]	86–88%
O=C(CN1CCCC(O)C1)Nc1sc2c(c1C(O)c1cccs1)CCSC2 (stereo not shown) [Compound 49]	46–55%

The remaining lines, values ahead:

% Inhibition	Structure (SMILES)
11–58%	O=C(CN1CCCCCC1)Nc1sc2c(c1C(O)c1ccc(Cl)cc1)CCSC2 (stereo not shown) [Compound 24]
11–79%	Cc1ccc(C(=O)c2c(NC(=O)CN3CCCC(O)C3)sc3c2CCSC3)cc1 (stereo not shown) [Compound 28]
99–100%	O=C(CN1CCCCC1)Nc1sc2c(c1C(=O)c1cccc(F)c1)CCSC2 [Compound 56]
93–99%	O=C(CN1CCCCC1)Nc1sc2c(c1C(=O)c1ccc(Cl)cc1)CCOC2 [Compound 1, N-[3-(4-chlorobenzoyl)-4,7-dihydro-5H-thieno[2,3-c]pyran-2-yl]-2-piperidin-1-ylacetamide]
72–84%	O=C(CN1CCCC(O)C1)Nc1sc2c(c1C(O)c1ccc(Cl)cc1)CCOC2 (stereo not shown) [Compound 4, N-{3-[(4-chlorophenyl)(hydroxy)methyl]-4,7-dihydro-5H-thieno[2,3-c]pyran-2-yl}-2-(3-hydroxypiperidin-1-yl)acetamide]
96–97%	O=C(CN1CCCC(O)C1)Nc1sc2c(c1C(=O)c1ccc(Cl)cc1)CCOC2 (stereo not shown) [Compound 3, N-[3-(4-chlorobenzoyl)-4,7-dihydro-5H-thieno[2,3-c]pyran-2-yl]-2-(3-hydroxypiperidin-1-yl)acetamide]
85–95%	O=C(CN1CCCCC1)Nc1sc2c(c1C(O)c1ccc(Cl)cc1)CCOC2 (stereo not shown) [Compound 2, N-{3-[(4-chlorophenyl)(hydroxy)methyl]-4,7-dihydro-5H-thieno[2,3-c]pyran-2-yl}-2-piperidin-1-ylacetamide]
0–66%	O=C(CN1CCCCC1)Nc1sc2c(c1C(=O)c1cccs1)CCSC2 [Compound 37]
